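1) Cells in 96-well plates. 2) Compound, 48 h, 5 concentrations. 3) Linear interpolation between surrounding doses. 4) Unreached endpoint = highest concentration. GI50: concentration for 50% inhibition of growth. Definition used: TGI = concentration required for complete inhibition of growth.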
What was measured:
Experiment in all cases: growth of human tumour cells (NCI), 48 h
MDA-MB-468 breast = system: MDA-MB-468 breast
COLO 205 colon = system: COLO 205 colon
HOP-62 NSCLC = system: HOP-62 NSCLC
UO-31 renal = system: UO-31 renal
OVCAR-5 ovarian = system: OVCAR-5 ovarian
NCI-H522 lung = system: NCI-H522 lung
HS 578T breast = system: HS 578T breast
MDA-MB-231 breast = system: MDA-MB-231 breast
T-47D breast = system: T-47D breast
SF-295 CNS = system: SF-295 CNS
SK-MEL-28 melanoma = system: SK-MEL-28 melanoma
HCT-116 colon = system: HCT-116 colon
ACHN renal = system: ACHN renal
SK-MEL-5 melanoma = system: SK-MEL-5 melanoma
SR leukemia = system: SR leukemia
CCRF-CEM leukemia = system: CCRF-CEM leukemia
HOP-92 NSCLC = system: HOP-92 NSCLC
PC-3 prostate = system: PC-3 prostate
HCC-2998 colon = system: HCC-2998 colon
UACC-257 melanoma = system: UACC-257 melanoma
K-562 leukemia = system: K-562 leukemia
MCF7 breast = system: MCF7 breast
SF-268 CNS = system: SF-268 CNS
SK-OV-3 ovarian = system: SK-OV-3 ovarian
A498 renal = system: A498 renal
OVCAR-8 ovarian = system: OVCAR-8 ovarian
786-0 renal = system: 786-0 renal
OVCAR-3 ovarian = system: OVCAR-3 ovarian
CAKI-1 renal = system: CAKI-1 renal
SNB-75 CNS = system: SNB-75 CNS
HL-60(TB) leukemia = system: HL-60(TB) leukemia
KM12 colon = system: KM12 colon
HCT-15 colon = system: HCT-15 colon
NCI-H460 lung = system: NCI-H460 lung
NCI-H226 lung = system: NCI-H226 lung
SK-MEL-2 melanoma = system: SK-MEL-2 melanoma
SNB-19 CNS = system: SNB-19 CNS
MALME-3M melanoma = system: MALME-3M melanoma
RPMI-8226 leukemia = system: RPMI-8226 leukemia
UACC-62 melanoma = system: UACC-62 melanoma
NCI/ADR-RES ovarian = system: NCI/ADR-RES ovarian
IGROV1 ovarian = system: IGROV1 ovarian
TK-10 renal = system: TK-10 renal
MDA-MB-435 = system: MDA-MB-435
A549 NSCLC = system: A549 NSCLC
OVCAR-4 ovarian = system: OVCAR-4 ovarian
NCI-H23 lung = system: NCI-H23 lung
HT29 colon = system: HT29 colon
MOLT-4 leukemia = system: MOLT-4 leukemia
M14 melanoma = system: M14 melanoma
DU-145 prostate = system: DU-145 prostate
EKVX NSCLC = system: EKVX NSCLC
U251 CNS = system: U251 CNS
LOX IMVI melanoma = system: LOX IMVI melanoma
BT-549 breast = system: BT-549 breast
SW-620 colon = system: SW-620 colon
SN12C renal = system: SN12C renal
SF-539 CNS = system: SF-539 CNS

Question: Which GI50 (MDA-MB-468 breast) does the source give for `Cc1ccc(Cl)cc1NC(=O)N/C(N)=N/c1nc2ccccc2s1` here?
Answer: 217 nM

Question: And the TGI (MDA-MB-468 breast)?
Answer: 650 nM

Question: What about the GI50 (COLO 205 colon) of the same molecule?
Answer: 67.9 nM

Question: What about the TGI (COLO 205 colon) of the same molecule?
Answer: 285 nM

Question: What about the GI50 (HOP-62 NSCLC) of the same molecule?
Answer: 50.8 nM

Question: What about the TGI (HOP-62 NSCLC) of the same molecule?
Answer: 2980 nM

Question: What about the GI50 (UO-31 renal) of the same molecule?
Answer: 59.3 nM

Question: And the TGI (UO-31 renal)?
Answer: 10.2 µM

Question: What about the GI50 (OVCAR-5 ovarian) of the same molecule?
Answer: 131 nM

Question: And the TGI (OVCAR-5 ovarian)?
Answer: 4.96 µM

Question: And the GI50 (NCI-H522 lung)?
Answer: 24.7 nM

Question: And the TGI (NCI-H522 lung)?
Answer: 88.3 nM

Question: What about the GI50 (HS 578T breast) of the same molecule?
Answer: 34.3 nM

Question: And the TGI (HS 578T breast)?
Answer: 22.7 µM

Question: What about the GI50 (MDA-MB-231 breast) of the same molecule?
Answer: 39.2 nM

Question: What about the TGI (MDA-MB-231 breast) of the same molecule?
Answer: 278 nM

Question: What about the GI50 (T-47D breast) of the same molecule?
Answer: 1320 nM

Question: What about the TGI (T-47D breast) of the same molecule?
Answer: 53.2 µM

Question: And the GI50 (SF-295 CNS)?
Answer: 29.9 nM

Question: What about the TGI (SF-295 CNS) of the same molecule?
Answer: 1300 nM

Question: What about the GI50 (SK-MEL-28 melanoma) of the same molecule?
Answer: 608 nM

Question: And the TGI (SK-MEL-28 melanoma)?
Answer: 19.9 µM

Question: And the GI50 (HCT-116 colon)?
Answer: 37.1 nM

Question: What about the TGI (HCT-116 colon) of the same molecule?
Answer: 696 nM

Question: And the GI50 (ACHN renal)?
Answer: 79.4 nM

Question: What about the TGI (ACHN renal) of the same molecule?
Answer: 6.37 µM

Question: And the GI50 (SK-MEL-5 melanoma)?
Answer: 33.2 nM

Question: What about the TGI (SK-MEL-5 melanoma) of the same molecule?
Answer: 136 nM

Question: And the GI50 (SR leukemia)?
Answer: 51.3 nM

Question: What about the GI50 (CCRF-CEM leukemia) of the same molecule?
Answer: 37.1 nM

Question: What about the TGI (CCRF-CEM leukemia) of the same molecule?
Answer: 7.47 µM

Question: What about the GI50 (HOP-92 NSCLC) of the same molecule?
Answer: 1170 nM

Question: What about the TGI (HOP-92 NSCLC) of the same molecule?
Answer: 10.9 µM

Question: And the GI50 (PC-3 prostate)?
Answer: 55.1 nM

Question: What about the TGI (PC-3 prostate) of the same molecule?
Answer: 11.3 µM

Question: And the GI50 (HCC-2998 colon)?
Answer: 67.6 nM

Question: And the TGI (HCC-2998 colon)?
Answer: 1110 nM

Question: What about the GI50 (UACC-257 melanoma) of the same molecule?
Answer: 6.47 µM

Question: What about the TGI (UACC-257 melanoma) of the same molecule?
Answer: 33.2 µM

Question: What about the GI50 (K-562 leukemia) of the same molecule?
Answer: 34.6 nM

Question: And the TGI (K-562 leukemia)?
Answer: > 33.9 µM

Question: What about the GI50 (MCF7 breast) of the same molecule?
Answer: 199 nM

Question: And the TGI (MCF7 breast)?
Answer: 11.4 µM

Question: What about the GI50 (SF-268 CNS) of the same molecule?
Answer: 493 nM

Question: What about the TGI (SF-268 CNS) of the same molecule?
Answer: 26.6 µM

Question: And the GI50 (SK-OV-3 ovarian)?
Answer: 62.4 nM

Question: And the TGI (SK-OV-3 ovarian)?
Answer: 4.73 µM

Question: What about the GI50 (A498 renal) of the same molecule?
Answer: 12.4 µM

Question: What about the TGI (A498 renal) of the same molecule?
Answer: 25.8 µM

Question: What about the GI50 (OVCAR-8 ovarian) of the same molecule?
Answer: 43.8 nM

Question: And the TGI (OVCAR-8 ovarian)?
Answer: 2080 nM

Question: What about the GI50 (786-0 renal) of the same molecule?
Answer: 64.1 nM

Question: And the TGI (786-0 renal)?
Answer: 4.02 µM

Question: What about the GI50 (OVCAR-3 ovarian) of the same molecule?
Answer: 36.8 nM

Question: And the TGI (OVCAR-3 ovarian)?
Answer: 1330 nM

Question: And the GI50 (CAKI-1 renal)?
Answer: 45.6 nM

Question: What about the TGI (CAKI-1 renal) of the same molecule?
Answer: 6.66 µM

Question: And the GI50 (SNB-75 CNS)?
Answer: 125 nM

Question: What about the TGI (SNB-75 CNS) of the same molecule?
Answer: 9.29 µM

Question: What about the GI50 (HL-60(TB) leukemia) of the same molecule?
Answer: 30.9 nM

Question: What about the TGI (HL-60(TB) leukemia) of the same molecule?
Answer: 843 nM

Question: And the GI50 (KM12 colon)?
Answer: 45.5 nM

Question: What about the TGI (KM12 colon) of the same molecule?
Answer: 7.12 µM

Question: What about the GI50 (HCT-15 colon) of the same molecule?
Answer: 40.5 nM

Question: What about the TGI (HCT-15 colon) of the same molecule?
Answer: 3 µM

Question: What about the GI50 (NCI-H460 lung) of the same molecule?
Answer: 39.1 nM

Question: And the TGI (NCI-H460 lung)?
Answer: 1320 nM

Question: What about the GI50 (NCI-H226 lung) of the same molecule?
Answer: 187 nM

Question: And the TGI (NCI-H226 lung)?
Answer: 2550 nM

Question: And the GI50 (SK-MEL-2 melanoma)?
Answer: 95 nM

Question: What about the TGI (SK-MEL-2 melanoma) of the same molecule?
Answer: 941 nM

Question: And the GI50 (SNB-19 CNS)?
Answer: 66.5 nM

Question: And the TGI (SNB-19 CNS)?
Answer: 15.2 µM

Question: What about the GI50 (MALME-3M melanoma) of the same molecule?
Answer: 54.4 nM

Question: And the TGI (MALME-3M melanoma)?
Answer: 12 µM

Question: And the GI50 (RPMI-8226 leukemia)?
Answer: 42.5 nM

Question: What about the TGI (RPMI-8226 leukemia) of the same molecule?
Answer: 6.19 µM

Question: What about the GI50 (UACC-62 melanoma) of the same molecule?
Answer: 46.7 nM

Question: And the TGI (UACC-62 melanoma)?
Answer: 5.53 µM

Question: What about the GI50 (NCI/ADR-RES ovarian) of the same molecule?
Answer: 23 nM

Question: And the TGI (NCI/ADR-RES ovarian)?
Answer: 54.9 nM

Question: And the GI50 (IGROV1 ovarian)?
Answer: 99.2 nM

Question: And the TGI (IGROV1 ovarian)?
Answer: 2860 nM

Question: And the GI50 (TK-10 renal)?
Answer: 4.95 µM

Question: What about the TGI (TK-10 renal) of the same molecule?
Answer: 16.6 µM

Question: What about the GI50 (MDA-MB-435) of the same molecule?
Answer: 20.3 nM

Question: And the TGI (MDA-MB-435)?
Answer: 43.5 nM

Question: What about the GI50 (A549 NSCLC) of the same molecule?
Answer: 115 nM

Question: What about the TGI (A549 NSCLC) of the same molecule?
Answer: 4.5 µM

Question: And the GI50 (OVCAR-4 ovarian)?
Answer: 1580 nM

Question: And the TGI (OVCAR-4 ovarian)?
Answer: 16.3 µM

Question: And the GI50 (NCI-H23 lung)?
Answer: 45.2 nM

Question: And the TGI (NCI-H23 lung)?
Answer: 3.57 µM

Question: What about the GI50 (HT29 colon) of the same molecule?
Answer: 28.9 nM

Question: And the TGI (HT29 colon)?
Answer: 118 nM

Question: And the GI50 (MOLT-4 leukemia)?
Answer: 60.3 nM

Question: What about the TGI (MOLT-4 leukemia) of the same molecule?
Answer: 8.4 µM

Question: What about the GI50 (M14 melanoma) of the same molecule?
Answer: 25.6 nM

Question: What about the TGI (M14 melanoma) of the same molecule?
Answer: 523 nM

Question: And the GI50 (DU-145 prostate)?
Answer: 47.1 nM

Question: And the TGI (DU-145 prostate)?
Answer: 2850 nM

Question: And the GI50 (EKVX NSCLC)?
Answer: 109 nM

Question: And the TGI (EKVX NSCLC)?
Answer: 15.2 µM

Question: And the GI50 (U251 CNS)?
Answer: 37 nM

Question: And the TGI (U251 CNS)?
Answer: 3.67 µM

Question: And the GI50 (LOX IMVI melanoma)?
Answer: 61.9 nM

Question: And the TGI (LOX IMVI melanoma)?
Answer: 1520 nM

Question: And the GI50 (BT-549 breast)?
Answer: 183 nM

Question: And the TGI (BT-549 breast)?
Answer: 1370 nM

Question: What about the GI50 (SW-620 colon) of the same molecule?
Answer: 44.5 nM

Question: What about the TGI (SW-620 colon) of the same molecule?
Answer: 14.4 µM

Question: What about the GI50 (SN12C renal) of the same molecule?
Answer: 64.1 nM

Question: What about the TGI (SN12C renal) of the same molecule?
Answer: 2440 nM

Question: What about the GI50 (SF-539 CNS) of the same molecule?
Answer: 22.2 nM

Question: And the TGI (SF-539 CNS)?
Answer: 54.7 nM

Reference: PubChem BioAssay (NCI)
